Laboratory results taken from ChEMBL document CHEMBL3399977, “Design, synthesis and preliminary bioactivity studies of 2-thioxo-4-thiazolidinone derivatives as Bcl-2 inhibitors” (Bioorg Med Chem, 2015).

Legend:
[1] = molecular target: Apoptosis regulator Bcl-2 (Homo sapiens, UniProt P10415); experiment: Inhibition of Bcl-2 (unknown origin) using 5-FAM-Bid-BH3 as substrate preincubated for 30 mins before substrate addition measured after 20 mins by fluorescence polarization technique
cells = details: Homo sapiens, PC-3, 48 h
Bcl-2-like protein 1 = Bcl-2-like protein 1 (Homo sapiens, UniProt Q07817); experiment: Inhibition of Bcl-XL (unknown origin) using 5-FAM-Bid-BH3 as substrate preincubated for 30 mins before substrate addition measured after 20 mins by fluorescence polarization technique
MDA-MB-231 = experiment: Antiproliferative activity against human MDA-MB-231 cells after 48 hrs by MTT assay; assay type: functional, cell-based; details: MDA-MB-231, 48 h
[2] = molecular target: Induced myeloid leukemia cell differentiation protein Mcl-1 (Homo sapiens, UniProt Q07820); experiment: Inhibition of Mcl-1 (unknown origin) using 5-FAM-Bid-BH3 as substrate preincubated for 30 mins before substrate addition measured after 20 mins by fluorescence polarization technique
K562 = experiment: cells; details: Homo sapiens, K562, 48 h

Chain of Induced myeloid leukemia cell differentiation protein Mcl-1 (Q07820 whole entry): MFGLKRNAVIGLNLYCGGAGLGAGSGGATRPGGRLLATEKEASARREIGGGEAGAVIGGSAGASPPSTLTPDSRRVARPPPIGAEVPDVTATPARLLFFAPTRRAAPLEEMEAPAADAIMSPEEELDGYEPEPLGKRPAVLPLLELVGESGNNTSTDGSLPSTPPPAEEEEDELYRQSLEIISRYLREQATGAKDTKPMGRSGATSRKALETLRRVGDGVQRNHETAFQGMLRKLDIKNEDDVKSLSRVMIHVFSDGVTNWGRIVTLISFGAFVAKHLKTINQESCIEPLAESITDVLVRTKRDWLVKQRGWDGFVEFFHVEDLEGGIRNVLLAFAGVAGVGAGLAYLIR
Chain of Bcl-2-like protein 1 (Q07817 whole entry): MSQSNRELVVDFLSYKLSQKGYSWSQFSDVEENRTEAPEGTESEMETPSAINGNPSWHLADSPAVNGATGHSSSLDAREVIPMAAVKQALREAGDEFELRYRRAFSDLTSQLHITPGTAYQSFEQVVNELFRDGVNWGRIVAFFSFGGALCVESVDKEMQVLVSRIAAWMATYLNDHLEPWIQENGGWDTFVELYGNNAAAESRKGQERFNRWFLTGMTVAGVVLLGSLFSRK
Chain of Apoptosis regulator Bcl-2 (P10415 whole entry): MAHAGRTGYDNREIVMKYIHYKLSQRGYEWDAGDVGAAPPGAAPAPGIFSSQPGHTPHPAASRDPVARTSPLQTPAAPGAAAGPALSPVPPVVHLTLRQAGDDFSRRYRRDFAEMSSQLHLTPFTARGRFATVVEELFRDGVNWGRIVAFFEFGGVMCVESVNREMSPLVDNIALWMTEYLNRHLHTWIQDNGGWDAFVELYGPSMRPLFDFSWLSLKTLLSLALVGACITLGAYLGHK

Structure (SMILES)	Ki [1] [nM]	other results
O=C(NS(=O)(=O)c1ccccc1)[C@H](Cc1ccc(Br)cc1)N1C(=O)/C(=C/c2ccc(-c3ccccc3)cc2)SC1=S	520	
O=C(NS(=O)(=O)c1ccc(Cl)c([N+](=O)[O-])c1)[C@H](Cc1ccc(Br)cc1)N1C(=O)/C(=C/c2ccc(-c3ccc(C(F)(F)F)cc3)cc2)SC1=S	1200	
O=C(NS(=O)(=O)c1ccccc1)[C@H](Cc1c[nH]c2ccccc12)N1C(=O)/C(=C/c2ccc(-c3ccccc3)cc2)SC1=S	730	
O=C(NS(=O)(=O)c1ccccc1)[C@H](Cc1ccc(Br)cc1)N1C(=O)/C(=C/c2ccc(-c3ccc(Cl)cc3)cc2)SC1=S	470	IC50 (cells): > 50000 nM; Ki (Bcl-2-like protein 1; read-out: Ki): 390 nM; IC50 (MDA-MB-231): 28800 nM; Ki [2]: 66 nM; IC50 (K562): 20900 nM
O=C(NS(=O)(=O)c1ccc(Cl)c([N+](=O)[O-])c1)[C@H](Cc1c[nH]c2ccccc12)N1C(=O)/C(=C/c2ccc(-c3ccc(Cl)cc3)cc2)SC1=S	5600	
Cc1cc2c(C(C)C)c(O)c(O)c(C=O)c2c(O)c1-c1c(C)cc2c(C(C)C)c(O)c(O)c(C=O)c2c1O [GOSSYPOL]		IC50 (cells): 6260 nM; IC50 (MDA-MB-231): 9210 nM; IC50 (K562): 4550 nM
O=C(NS(=O)(=O)c1ccc([N+](=O)[O-])cc1)[C@H](Cc1c[nH]c2ccccc12)N1C(=O)/C(=C/c2ccc(-c3ccc(Cl)cc3)cc2)SC1=S	680	
C[C@@H](C(=O)NS(=O)(=O)c1ccccc1)N1C(=O)/C(=C/c2ccc(-c3ccccc3)cc2)SC1=S	2400	
O=C(NS(=O)(=O)c1ccccc1)[C@H](Cc1c[nH]c2ccccc12)N1C(=O)/C(=C/c2ccc(-c3ccc([N+](=O)[O-])cc3)cc2)SC1=S	540	
Cc1ccc(-c2ccc(/C=C3\SC(=S)N([C@@H](Cc4c[nH]c5ccccc45)C(=O)NS(=O)(=O)c4ccc([N+](=O)[O-])cc4)C3=O)cc2)cc1	720	
CSCC[C@@H](C(=O)NS(=O)(=O)c1ccccc1)N1C(=O)/C(=C/c2ccc(-c3ccccc3)cc2)SC1=S	950	
O=C(NS(=O)(=O)c1ccccc1)[C@H](Cc1ccc(Br)cc1)N1C(=O)/C(=C/c2ccc(-c3ccc([N+](=O)[O-])cc3)cc2)SC1=S	420	IC50 (cells): > 50000 nM; Ki (Bcl-2-like protein 1; read-out: Ki): 540 nM; IC50 (MDA-MB-231): 46200 nM; Ki [2]: 86 nM; IC50 (K562): > 50000 nM
O=C(NS(=O)(=O)c1ccc([N+](=O)[O-])cc1)[C@H](Cc1ccc(Br)cc1)N1C(=O)/C(=C/c2ccc(-c3ccc(C(F)(F)F)cc3)cc2)SC1=S	900	
O=C(NS(=O)(=O)c1ccc(Cl)c([N+](=O)[O-])c1)[C@H](Cc1ccc(Br)cc1)N1C(=O)/C(=C/c2ccc(-c3ccc([N+](=O)[O-])cc3)cc2)SC1=S	> 50000	
O=C(NS(=O)(=O)c1ccc([N+](=O)[O-])cc1)[C@H](Cc1c[nH]c2ccccc12)N1C(=O)/C(=C/c2ccc(-c3ccc(C(F)(F)F)cc3)cc2)SC1=S	750	
O=C(NS(=O)(=O)c1ccc([N+](=O)[O-])cc1)[C@H](Cc1ccccc1)N1C(=O)/C(=C/c2ccc(-c3ccc(Cl)cc3)cc2)SC1=S	660	
O=C(NS(=O)(=O)c1ccc(Cl)c([N+](=O)[O-])c1)[C@H](Cc1ccc(Br)cc1)N1C(=O)/C(=C/c2ccc(-c3ccc(Cl)cc3)cc2)SC1=S	700	
O=C(NS(=O)(=O)c1ccc([N+](=O)[O-])cc1)[C@H](Cc1ccc(Br)cc1)N1C(=O)/C(=C/c2ccc(-c3ccc([N+](=O)[O-])cc3)cc2)SC1=S	360	IC50 (cells): 40700 nM; Ki (Bcl-2-like protein 1): Not Active; IC50 (MDA-MB-231): 30400 nM; Ki [2]: 74 nM; IC50 (K562): 7900 nM

Structure (SMILES)	Ki [1] [nM]	other results
O=C(NS(=O)(=O)c1ccc([N+](=O)[O-])cc1)[C@H](Cc1ccccc1)N1C(=O)/C(=C/c2ccc(-c3ccc(C(F)(F)F)cc3)cc2)SC1=S	850	
O=C(NS(=O)(=O)c1ccc([N+](=O)[O-])cc1)[C@H](Cc1ccccc1)N1C(=O)/C(=C/c2ccc(-c3ccc([N+](=O)[O-])cc3)cc2)SC1=S	800	
Cc1ccc(S(=O)(=O)NC(=O)[C@H](Cc2ccccc2)N2C(=O)/C(=C/c3ccc(-c4ccccc4)cc3)SC2=S)cc1	720	Ki (Bcl-2-like protein 1; read-out: Ki): 660 nM; Ki [2]: 250 nM
O=C(NS(=O)(=O)c1ccc(Cl)c([N+](=O)[O-])c1)[C@H](Cc1ccccc1)N1C(=O)/C(=C/c2ccc(-c3ccc([N+](=O)[O-])cc3)cc2)SC1=S	2400	
COC(=O)c1ccc(-c2ccc(/C=C3\SC(=S)N([C@@H](Cc4ccc(Br)cc4)C(=O)NS(=O)(=O)c4ccccc4)C3=O)cc2)cc1	460	
O=C(NS(=O)(=O)c1ccc(Cl)c([N+](=O)[O-])c1)[C@H](Cc1c[nH]c2ccccc12)N1C(=O)/C(=C/c2ccc(-c3ccc([N+](=O)[O-])cc3)cc2)SC1=S	750	
O=C(NS(=O)(=O)c1ccc([N+](=O)[O-])cc1)[C@H](Cc1ccc(Br)cc1)N1C(=O)/C(=C/c2ccc(-c3ccc(Cl)cc3)cc2)SC1=S	710	IC50 (cells): 24100 nM; Ki (Bcl-2-like protein 1; read-out: Ki): 490 nM; IC50 (MDA-MB-231): 28600 nM; Ki [2]: 63 nM; IC50 (K562): 9440 nM
O=C(NS(=O)(=O)c1ccc(Cl)c([N+](=O)[O-])c1)[C@H](Cc1ccccc1)N1C(=O)/C(=C/c2ccc(-c3ccccc3)cc2)SC1=S	540	
O=C(NS(=O)(=O)c1ccccc1)[C@H](Cc1c[nH]c2ccccc12)N1C(=O)/C(=C/c2ccc(-c3ccc(Cl)cc3)cc2)SC1=S	470	
COC(=O)c1ccc(-c2ccc(/C=C3\SC(=S)N([C@@H](Cc4ccccc4)C(=O)NS(=O)(=O)c4ccc(Cl)c([N+](=O)[O-])c4)C3=O)cc2)cc1	1400	
O=C(NS(=O)(=O)c1ccccc1)[C@H](Cc1ccccc1)N1C(=O)/C(=C/c2ccc(-c3ccc([N+](=O)[O-])cc3)cc2)SC1=S	460	
CC[C@H](C)[C@@H](C(=O)NS(=O)(=O)c1ccccc1)N1C(=O)/C(=C/c2ccc(-c3ccccc3)cc2)SC1=S	410	
CC(C)[C@@H](C(=O)NS(=O)(=O)c1ccccc1)N1C(=O)/C(=C/c2ccc(-c3ccccc3)cc2)SC1=S	630	
O=C(NS(=O)(=O)c1ccc([N+](=O)[O-])cc1)[C@H](Cc1c[nH]c2ccccc12)N1C(=O)/C(=C/c2ccc(-c3ccc([N+](=O)[O-])cc3)cc2)SC1=S	80	
O=C(NS(=O)(=O)c1ccc(Cl)c([N+](=O)[O-])c1)[C@H](Cc1ccccc1)N1C(=O)/C(=C/c2ccc(-c3ccc(Cl)cc3)cc2)SC1=S	1900	
O=C(NS(=O)(=O)c1ccc(Cl)cc1)[C@H](Cc1ccccc1)N1C(=O)/C(=C/c2ccc(-c3ccccc3)cc2)SC1=S	510	
O=C(NS(=O)(=O)c1ccc(Cl)c([N+](=O)[O-])c1)[C@H](Cc1ccccc1)N1C(=O)/C(=C/c2ccc(-c3ccc(C(F)(F)F)cc3)cc2)SC1=S	870	
O=C(NS(=O)(=O)c1ccc([N+](=O)[O-])cc1)[C@H](Cc1ccccc1)N1C(=O)/C(=C/c2ccc(-c3ccccc3)cc2)SC1=S	450	
